Assay: In-vivo testing for antiobesic activity
Conditions: rats
[1] = 10 mg/kg body weight daily intraperitoneally over 14 days

O=C(NN1CCCCC1)C1=NN(c2ccc(Cl)cc2Cl)C(c2ccc(Cl)cc2)C1 (stereo not drawn) [Example 1, N-piperidinyl-5-(4-chlorophenyl)-1-(2,4-dichlorophenyl)-4,5-dihydro-1H-pyrazole-3-carboxamide]
body weight (FIG. 1) [1]: body weight is lowered | food intake (FIG. 2) [1]: reduction of food intake | body weight effect after the treatment is ended (FIG. 1) (after end of 14 days of 10 mg/kg daily intraperitoneally): also observed after the treatment is ended

Reference: patent US7524868B2, “Substituted pyrazoline compounds, their preparation and use as medicaments” (Laboratorios Del Dr. Esteve, S.A., priority 2004, dated 2009)
